Results published in patent publication US20050004134A1, “Thiazole derivative and pharmaceutical use thereof” (priority 2001, published 2005).

| SMILES | melting point |
| --- | --- |
| CC(C)n1nc(-c2sc(N)nc2-c2ccccc2F)ccc1=O [Example 79, 6-[2-Amino-4-(2-fluorophenyl)-1,3-thiazol-5-yl]-2-isopropyl-3(2H)-pyridazinone] | 233 to 235 °C |
| CC(C)n1nc(-c2sc(NC(=O)CNCCN(C)C)nc2-c2ccccc2)ccc1=O.Cl.Cl | 136 to 142 °C |
| COCCn1nc(-c2sc(N)nc2-c2ccccc2)ccc1=O [Example 87, 6-(2-Amino-4-phenyl-1,3-thiazol-5-yl)-2-(2-methoxyethyl)-3(2H)-pyridazinone] | 208 to 209.5 °C |
| CC(C)n1nc(-c2sc(NC(=O)c3ccccc3OC(F)(F)F)nc2-c2ccccc2)ccc1=O [Example 53, N-[5-(1-Isopropyl-6-oxo-1,6-dihydro-3-pyridazinyl)-4-phenyl-1,3-thiazol-2-yl]-2-(trifluoromethoxy)benzamide] | 212 to 213 °C |
| CC(O)CNCC(=O)Nc1nc(-c2ccccc2)c(-c2ccc(=O)n(C(C)C)n2)s1.Cl (stereo not drawn) | 209 to 211 °C |
| COCCNCCC(=O)Nc1nc(-c2ccccc2)c(-c2ccc(=O)n(C(C)C)n2)s1 [Example 122, N-[5-(1-Isopropyl-6-oxo-1,6-dihydro-3-pyridazinyl)-4-phenyl-1,3-thiazol-2-Yl]-3-[(2-methoxyethyl)amino]propanamide] | 167 to 168 °C |
| CC(C)n1nc(-c2sc(NCc3ccccc3)nc2-c2ccccc2)ccc1=O [Example 65, 6-[2-(Benzylamino)-4-phenyl-1,3-thiazol-5-yl]-2-isopropyl-3 (2H)-pyridazinone] | 157 to 158 °C |
| Cc1ccc(S(=O)(=O)NC(=O)Nc2nc(-c3ccccc3)c(-c3ccc(=O)n(C(C)C)n3)s2)cc1 [Example 12, N-({[5-(1-Isopropyl-6-oxo-1,6-dihydro-3-pyridazinyl)-4-phenyl-1,3-thiazol-2-yl]amino}carbonyl)-4-methylbenzene-sulfonamide] | 172 to 174 °C |
| C=CCNc1nc(-c2ccccc2)c(-c2ccc(=O)n(CC=C)n2)s1 [Example 93, 2-allyl-6-[2-(allylamino)-4-phenyl-1,3-thiazol-5-yl]-3(2H)-pyridazinone] | 146 to 147 °C |
| CC(C)n1nc(-c2sc(NC=O)nc2-c2ccccc2)ccc1=O [Example 94, 5-(1-isopropyl-6-oxo-1,6-dihydro-3-pyridazinyl)-4-phenyl-1,3-thiazol-2-ylformamide] | 232 to 234 °C |
| CCOCCNCC(=O)Nc1nc(-c2ccccc2)c(-c2ccc(=O)n(C(C)C)n2)s1.Cl | 252 to 253 °C |
| CC(C)n1nc(-c2sc(NC(=O)CCN3CCOCC3)nc2-c2ccccc2)ccc1=O [Example 123, N-[5-(1-Isopropyl-6-oxo-1,6-dihydro-3-pyridazinyl)-4-phenyl-1,3-thiazol-2-yl]-3-(4-morpholinyl)propanamide] | 197 to 198 °C |
| CC(C)n1nc(-c2sc(C(=O)N3CCCC3)nc2-c2ccccc2)ccc1=O [Example 226, 2-Isopropyl-6-[4-phenyl-2-(1-pyrrolidinylcarbonyl)-1,3-thiazol-5-yl]-3(2H)-pyridazinone] | 169 to 170.5 °C |
| CCOCCNCc1ccc(C(=O)Nc2nc(-c3ccccc3)c(-c3ccc(=O)n(C(C)C)n3)s2)cc1 [Example 145, 4-{[(2-Ethoxyethyl)amino]methyl}-N-[5-(1-isopropyl-6-oxo-1,6-dihydro-3-pyridazinyl)-4-phenyl-1,3-thiazol-2-yl]benzamide] | 153 to 154 °C |
| CCCn1nc(-c2sc(C(=O)NC3CC3)nc2-c2ccccc2)ccc1=O [Example 191, N-cyclopropyl-5-(6-oxo-1-propyl-1,6-dihydro-3-pyridazinyl)-4-phenyl-1,3-thiazole-2-carboxamide] | 146 to 147 °C |
| CC(C)n1nc(-c2sc(NCCN3CCOCC3)nc2-c2ccccc2)ccc1=O.Cl.Cl | 140 to 143 °C |
| CC(C)n1nc(-c2sc(NC(=O)c3ccc(CN(C)C)cc3)nc2-c2ccccc2)ccc1=O [Example 28, 4-[(Dimethylamino)methyl]-N-[5-(1-isopropyl-6-oxo-1,6-dihydro-3-pyridazinyl)-4-phenyl-1,3-thiazol-2-yl]benzamide] | 246 to 248 °C |
| CC(C)n1nc(-c2sc(NC(=O)c3cccc4ccccc34)nc2-c2ccccc2)ccc1=O [Example 31, N-[5-(1-Isopropyl-6-oxo-1,6-dihydro-3-pyridazinyl)-4-phenyl-1,3-thiazol-2-yl]-1-naphthamide] | 223 to 224 °C |
| CC(C)n1nc(-c2sc(NC(=O)c3ccc4ccccc4c3)nc2-c2ccccc2)ccc1=O [Example 30, N-[5-(1-Isopropyl-6-oxo-1,6-dihydro-3-pyridazinyl)-4-phenyl-1,3-thiazol-2-yl]-2-naphthamide] | 227 to 229 °C |
| CC(C)NC(=O)c1nc(-c2ccccc2)c(-c2ccc(=O)[nH]n2)s1 [Example 176, N-isopropyl-5-(6-oxo-1,6-dihydro-3-pyridazinyl)-4-phenyl-1,3-thiazole-2-carboxamide] | > 250 °C |
| COCCNCc1ccc(C(=O)Nc2nc(-c3ccccc3)c(-c3ccc(=O)n(C(C)C)n3)s2)cc1 [Example 96, N-[5-(1-isopropyl-6-oxo-1,6-dihydro-3-pyridazinyl)-4-phenyl-1,3-thiazol-2-yl]-4-([(2-methoxyethyl)amino]methyl}benzamide] | 192 to 194 °C |
| C=CCn1nc(-c2sc(N)nc2-c2ccccc2)ccc1=O [Example 93, 2-Allyl-6-(2-amino-4-phenyl-1,3-thiazol-5-yl)-3(2H)-pyridazinone] | 212 to 215 °C |
| CC(C)n1nc(-c2sc(NC(=O)CN(C)C)nc2-c2ccccc2)ccc1=O.Cl | 232 to 234 °C |
| CC(C)n1nc(-c2sc(NC(=O)CNCc3ccccc3)nc2-c2ccccc2)ccc1=O [Example 103, 2-(Benzylamino)-N-[5-(1-isopropyl-6-oxo-1,6-dihydro-3-pyridazinyl)-4-phenyl-1,3-thiazol-2-yl]acetamide] | 144 to 145 °C |
| CC(C)n1nc(-c2sc(NCCN3CCCCC3)nc2-c2ccccc2)ccc1=O [Example 74, 2-Isopropyl-6-(4-phenyl-2-{[2-(1-piperidinyl)ethyl]amino}-1,3-thiazol-5-yl)-3(2H)-pyridazinone] | 165 to 166 °C |
| CCCn1nc(-c2sc(C(=O)NC(C)C)nc2-c2ccccc2)ccc1=O [Example 179, N-isopropyl-5-(6-oxo-1-propyl-1,6-dihydro-3-pyridazinyl)-4-phenyl-1,3-thiazole-2-carboxamide] | 146.5 to 147.5 °C |

Further lines, results first:

| melting point | SMILES |
| --- | --- |
| 172.5 to 173.5 °C | O=C(NCc1ccccn1)c1nc(-c2ccccc2)c(-c2ccc(=O)n(Cc3ccccc3)n2)s1 [Example 205, 5-(1-Benzyl-6-oxo-1,6-dihydro-3-pyridazinyl)-4-phenyl-N-(2-pyridinylmethyl)-1,3-thiazole-2-carboxamide] |
| 108 to 109 °C | CCCNC(=O)c1nc(-c2ccccc2)c(-c2ccc(=O)n(C)n2)s1 [Example 170, 5-(1-methyl-6-oxo-1,6-dihydro-3-pyridazinyl)-4-phenyl-N-propyl-1,3-thiazole-2-carboxamide] |
| 165 to 167.5 °C | CNC(=O)c1nc(-c2ccccc2)c(-c2ccc(=O)n(C(C)C)n2)s1 [Example 212, 5-(1-isopropyl-6-oxo-1,6-dihydro-3-pyridazinyl)-N-methyl-4-phenyl-1,3-thiazole-2-carboxamide] |
| 131 to 132.5 °C | CC(C)NC(=O)c1nc(-c2ccccc2)c(-c2ccc(=O)n(C(C)C)n2)s1 [Example 180, N-isopropyl-5-(1-isopropyl-6-oxo-1,6-dihydro-3-pyridazinyl)-4-phenyl-1,3-thiazole-2-carboxamide] |
| 200 to 201 °C | CC(C)n1nc(-c2sc(NC(=O)CCNCc3ccccn3)nc2-c2ccccc2)ccc1=O [Example 124, N-[5-(1-Isopropyl-6-oxo-1,6-dihydro-3-pyridazinyl)-4-phenyl-1,3-thiazol-2-yl]-3-[(2-pyridinylmethyl)amino]propanamide] |
| 225 to 226 °C | CC(C)n1nc(-c2sc(C(=O)NC3CCCCC3)nc2-c2ccccc2)ccc1=O [Example 225, N-Cyclohexyl-5-(1-isopropyl-6-oxo-1,6-dihydro-3-pyridazinyl)-4-phenyl-1,3-thiazole-2-carboxamide] |
| 250 to 252 °C | CC(C)n1nc(-c2sc(NC(=O)Cc3ccccc3)nc2-c2ccccc2)ccc1=O [Example 4, N-[5-(1-Isopropyl-6-oxo-1,6-dihydro-3-pyridazinyl)-4-phenyl-1,3-thiazol-2-yl]-2-phenylacetamide] |
| 220 to 221 °C | CC(C)n1nc(-c2sc(NC(=O)c3ccccc3Cl)nc2-c2ccccc2)ccc1=O [Example 46, 2-Chloro-N-[5-(1-isopropyl-6-oxo-1,6-dihydro-3-pyridazinyl)-4-phenyl-1,3-thiazol-2-yl]benzamide] |
| 118.5 to 119.5 °C | CC(C)n1nc(-c2sc(C(=O)NC3CC3)nc2-c2cccc(Cl)c2)ccc1=O [Example 199, 4-(3-chlorophenyl)-N-cyclopropyl-5-(1-isopropyl-6-oxo-1,6-dihydro-3-pyridazinyl)-1,3-thiazole-2-carboxamide] |
| 168 to 169.5 °C | CC(C)n1nc(-c2sc(C(=O)NCc3ccccn3)nc2-c2cccc(Cl)c2)ccc1=O [Example 209, 4-(3-Chlorophenyl)-5-(1-isopropyl-6-oxo-1,6-dihydro-3-pyridazinyl)-N-(2-pyridinylmethyl)-1,3-thiazole-2-carboxamide] |
| 145.5 to 147 °C | CC(C)n1nc(-c2sc(C(=O)NC3CC3)nc2-c2cccc(F)c2)ccc1=O [Example 197, N-cyclopropyl-4-(3-fluorophenyl)-5-(1-isopropyl-6-oxo-1,6-dihydro-3-pyridazinyl)-1,3-thiazole-2-carboxamide] |
| 202 to 203.5 °C | CC(C)n1nc(-c2sc(NC(=O)c3ccccc3)nc2-c2ccc(F)cc2)ccc1=O [Example 83, N-[4-(4-Fluorophenyl)-5-(1-isopropyl-6-oxo-1,6-dihydro-3-pyridazinyl)-1,3-thiazol-2-yl]-benzamide] |
| 157 to 158 °C | Cc1cccc(NC(=O)N(C)c2nc(-c3ccccc3)c(-c3ccc(=O)n(C(C)C)n3)s2)c1 [Example 99, N-[5-(1-isopropyl-6-oxo-1,6-dihydro-3-pyridazinyl)-4-phenyl-1,3-thiazol-2-yl]-N-methyl-N′-(3-methylphenyl)urea] |
